# Source: PubChem BioAssay (NCI)
#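 Tested at 5 concentrations; 48 h exposure; 96-well plates; endpoints linearly interpolated, else capped at highest concentration. Here, GI50 denotes the concentration required for 50% inhibition of growth. The concentration for full growth arrest is given as TGI.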
# Legend:
# Experiment in all cases: inhibition of tumour cell growth, NCI panel, 48 h
# A498 renal = tested on: A498 renal
# ACHN renal = tested on: ACHN renal
# CAKI-1 renal = tested on: CAKI-1 renal
# DU-145 prostate = tested on: DU-145 prostate
# HOP-92 NSCLC = tested on: HOP-92 NSCLC
# HT29 colon = tested on: HT29 colon
# KM12 colon = tested on: KM12 colon
# MALME-3M melanoma = tested on: MALME-3M melanoma
# MDA-MB-231 breast = tested on: MDA-MB-231 breast
# MOLT-4 leukemia = tested on: MOLT-4 leukemia
# NCI-H460 lung = tested on: NCI-H460 lung
# NCI-H522 lung = tested on: NCI-H522 lung
# NCI/ADR-RES ovarian = tested on: NCI/ADR-RES ovarian
# OVCAR-5 ovarian = tested on: OVCAR-5 ovarian
# PC-3 prostate = tested on: PC-3 prostate
# RPMI-8226 leukemia = tested on: RPMI-8226 leukemia
# SF-539 CNS = tested on: SF-539 CNS
# SK-MEL-2 melanoma = tested on: SK-MEL-2 melanoma
# SK-MEL-5 melanoma = tested on: SK-MEL-5 melanoma
# SN12C renal = tested on: SN12C renal
# SNB-75 CNS = tested on: SNB-75 CNS
# SW-620 colon = tested on: SW-620 colon
# TK-10 renal = tested on: TK-10 renal
# UACC-62 melanoma = tested on: UACC-62 melanoma
# UO-31 renal = tested on: UO-31 renal
smiles,measurement,setting,value
COc1cc(/C=N/NC(=O)c2cn(C3CC3)c3c(OC)c(N4CC5CCCNC5C4)c(F)cc3c2=O)ccc1O (stereo not given),GI50,A498 renal,1760 nM
same,TGI,A498 renal,3180 nM
same,GI50,ACHN renal,1700 nM
same,TGI,ACHN renal,3090 nM
same,GI50,CAKI-1 renal,1670 nM
same,TGI,CAKI-1 renal,3120 nM
same,GI50,DU-145 prostate,1860 nM
same,TGI,DU-145 prostate,3310 nM
same,GI50,HOP-92 NSCLC,1660 nM
same,TGI,HOP-92 NSCLC,3160 nM
same,GI50,HT29 colon,1830 nM
same,TGI,HT29 colon,3380 nM
same,GI50,KM12 colon,1670 nM
same,TGI,KM12 colon,3110 nM
same,GI50,MALME-3M melanoma,1690 nM
same,TGI,MALME-3M melanoma,3210 nM
same,GI50,MDA-MB-231 breast,1690 nM
same,TGI,MDA-MB-231 breast,3220 nM
same,GI50,MOLT-4 leukemia,2300 nM
same,TGI,MOLT-4 leukemia,5330 nM
same,GI50,NCI-H460 lung,1870 nM
same,TGI,NCI-H460 lung,3500 nM
same,GI50,NCI-H522 lung,1790 nM
same,TGI,NCI-H522 lung,3400 nM
same,GI50,NCI/ADR-RES ovarian,58800 nM
same,TGI,NCI/ADR-RES ovarian,> 100000 nM
same,GI50,OVCAR-5 ovarian,1650 nM
same,TGI,OVCAR-5 ovarian,3050 nM
same,GI50,PC-3 prostate,1740 nM
same,TGI,PC-3 prostate,3280 nM
same,GI50,RPMI-8226 leukemia,1880 nM
same,TGI,RPMI-8226 leukemia,4380 nM
same,GI50,SF-539 CNS,1730 nM
same,TGI,SF-539 CNS,3210 nM
same,GI50,SK-MEL-2 melanoma,1850 nM
same,TGI,SK-MEL-2 melanoma,3680 nM
same,GI50,SK-MEL-5 melanoma,17600 nM
same,TGI,SK-MEL-5 melanoma,41300 nM
same,GI50,SN12C renal,1830 nM
same,TGI,SN12C renal,3460 nM
same,GI50,SNB-75 CNS,1430 nM
same,TGI,SNB-75 CNS,2810 nM
same,GI50,SW-620 colon,1730 nM
same,TGI,SW-620 colon,3270 nM
same,GI50,TK-10 renal,1680 nM
same,TGI,TK-10 renal,3100 nM
same,GI50,UACC-62 melanoma,1720 nM
same,TGI,UACC-62 melanoma,3280 nM
same,GI50,UO-31 renal,1530 nM
same,TGI,UO-31 renal,2930 nM
